We go through 2 molecules from patent US8193192B2, “Heterocyclic FXR binding compounds” (Phenex Pharmaceuticals AG, priority 2006, dated 2012).

Data set [1] in a line: Plasma protein binding assay, filtration method. The settings on record: lithium-heparin plasma, mouse plasma, 37° C., one hour, read-out: Plasma protein binding (%) (±standard deviation) (converted). It is filed as in vitro ADME. The procedure:
Plasma Protein Binding Assay
Plasma protein binding was determined using the filtration method:
Preparation of standards: working solutions were prepared for each calibration level by appropriate dilution of the corresponding stock solution. Calibration standards were prepared by spiking 147 μl PBS buffer with 3 μl of the corresponding working solution. Sample preparation: The sample and standard solution preparation was performed by mixing equal volumes of acetonitrile containing the internal standard (1 μM) with 75 μl sample, or 150 μl calibration standard solution, respectively. After vigorously shaking the samples were centrifuged (6000 g) for 5 minutes. Aliquots of the supernatants were subjected to LC-MS/MS analysis. Assay procedure: Compound stock solutions were diluted in acetonitrile to give a 50-fold concentrated working solution. The incubation solutions were prepared by adding 3 μl of a 50-fold concentrated working solution in acetonitrile to 147 μl of lithium-heparin plasma from mice giving an incubation concentration of 1 μM. […] The percentage of compound bound to plasma proteins (% PPB) was calculated using the following equation: PPB[%]=100−(concentrationcompound plasma filtrate/mean concentrationcompound filtrated plasma filtrate)×100.
Applying this protocol, plasmaprotein binding of examples and reference compounds was determined as listed below in Table 5.

Data set [2] in a line: PAMPA permeability assay. It is filed as in vitro ADME. To be noted: % of compound found in the receiver compartment after 16 hours; PBS pH 7.4, 5% DMSO, 23° C. The procedure: Artificial membrane permeability was determined as follows: Tested compounds were dissolved to 10 mM in 100% DMSO. Permeability of compounds was measured in PBS (pH 7.4), 5% DMSO at 23° C. Safire (Tecan) plate reader was used for measurement the UV/Vis absorption. Protocol: Dilute stocks of tested compounds and controls with PBS to 1.67 mM and mix well by pipetting, add 280 μl of PBS, 5% DMSO to acceptor plate, add 5 μl of 2% L-α-Phosphatidylcholine suspension in dodecane to the membrane of donor plate. Immediately add 98 μl of PBS to donor plate and make the sandwich with acceptor plate. Add 42 μl of tested compounds and controls dilutions to […], cover the plate, place into camera and incubate for 16 hours. Make the equilibrium plate, add 225 μl of PBS, 3.7% DMSO and 25 μl of tested compounds and controls dilutions to UV plate. After 16 hours pull the donor plate out and transfer 250 μl from acceptor plate to UV plate. Scan UV plate on Safire (Tecan) plate reader from […]. Permeability is reported in % of compound found in the receiver compartment after the incubation period. Applying this protocol, PAMPA permeabilities of examples and reference compounds were determined as follows (see Table 4): […]
(PAMPA measures passive passage across an artificial lipid membrane.)

As to `CC(C)c1onc(-c2c(Cl)cccc2Cl)c1COc1ccc(Oc2ccc(C(=O)O)cc2)cc1` [Compound A, reference compound], the fraction unbound at 1 h, 1 µM in data set [1] is 0.007. In data set [2], the “PAMPA Permeability” value came out at 32%.

For `Cc1cc(OCc2c(-c3c(Cl)cccc3Cl)noc2C(C)C)cnc1Oc1ccc(C(=O)O)cc1` [Example 3, 4-(5-((3-(2,6-Dichlorophenyl)-5-isopropylisoxazol-4-yl)methoxy)-3-methylpyridin-2-yloxy)benzoic acid], the melting point (usually the temperature of the solid-liquid transition) fell in the range of 74 to 76 °C. Moreover, the fraction unbound at 1 h, 1 µM in data set [1] is 0.021.
